Measurements reported in US20170273917A1, “NMDA RECEPTOR ANTAGONISTS FOR TREATING GAUCHER DISEASE” (Yeda Research and Development Co. Ltd., priority 2014, published 2017).

Tests used:
rat hippocampal neurons = rat hippocampal neurons treated with CBE; high concentrations of glutamate; in vitro; cited from earlier work
inbred mouse strains = experiment: Survival of inbred mouse strains injected daily with CBE (GD induction); type: in vivo; details: for Average survival time: CBE 25 mg/kg/day i.p. daily from P8
Excerpt: Mice—Pure inbred mouse strains were obtained from the Jackson laboratories (USA), Harlan UK and Harlan Israel. Specifically, BTBR T^+ Itpr3^tf/J C3H/HeJ, DBA/2J, MRL/MpJ, WSB/EiJ, MOLF/Ei, PWD/PhJ, KK/HiJ, BPL/1J, I/LnJ, BPN/3J, and LP/J were obtained from Jackson; A/J, AKR/J, NZW/LacJ, 129S1/SvImJ were obtained from Harlan laboratories in the UK; and C57BL/6JOlaHsd, BALB/cJ and FVB/NJ were obtained from the Harlan laboratories in Israel. Gba^flox/flox; nestin-Cre mice, a mouse model of GD were generated as described in Vitner et al. Nature Medicine (2014) 20: 204-208; and Enquist, I. B. et al. Proc. Natl. Acad. Sci. USA (2007) 104: 17483-17488. These mice recapitulate many features of human nGD, although their Gba1 deficiency is restricted to neural and macroglial lineages. Mice were maintained under specific pathogen-free conditions and handled according to protocols approved by the Weizmann Institute Animal Care Committee according to international guidelines.
CBE injections—Conduritol-β-epoxide (CBE) was obtained from Calbiochem Millipore (Darmstadt, Germany). CBE at a dose of 25 mg or 50 mg per kg body weight per day or PBS (control) were administered i.p. to mice daily starting from postnatal day 8 (P8) of age.
To study the potential of different mouse stains to serve as a reliable model for Type 2/3 GD, 15 different inbred mouse strains were chosen. CBE has been used to induce GD in mice for many years (Mumford et al., 1975), and it was used to generate the first animal model for GD disease. CBE is water soluble and crosses the blood brain barrier. The 15 mice strains chosen have diverse phylogenetic origins and their SNP profile is freely available (FIG. 1A). Mice were daily injected i.p. with 25 mg/kg/day of CBE starting on postnatal day 8 and for the rest of their lives (Vitner et al., 2014). […] The strains could be divided into two groups: mice in the first group were very homogeneous in their behavior; they developed a very aggressive disease with a short life span. The second group of strains presented a much longer life expectancy with a broader spectrum of phenotypes.

GBA1 = molecular target: T1, GBA1 (Mus musculus, UniProt P17439); experiment: GBA1 activity assay in brain homogenates of treated mice; type: in vivo; details: mice treated for 10 days with CBE vs PBS; all strains tested; brains harvested P18
T1 construct: from tissue; host or cells: mouse brain (frozen half-brain homogenate) of inbred strains treated in vivo with PBS, CBE or CBE plus memantine
T1 sequence (P17439 20-515): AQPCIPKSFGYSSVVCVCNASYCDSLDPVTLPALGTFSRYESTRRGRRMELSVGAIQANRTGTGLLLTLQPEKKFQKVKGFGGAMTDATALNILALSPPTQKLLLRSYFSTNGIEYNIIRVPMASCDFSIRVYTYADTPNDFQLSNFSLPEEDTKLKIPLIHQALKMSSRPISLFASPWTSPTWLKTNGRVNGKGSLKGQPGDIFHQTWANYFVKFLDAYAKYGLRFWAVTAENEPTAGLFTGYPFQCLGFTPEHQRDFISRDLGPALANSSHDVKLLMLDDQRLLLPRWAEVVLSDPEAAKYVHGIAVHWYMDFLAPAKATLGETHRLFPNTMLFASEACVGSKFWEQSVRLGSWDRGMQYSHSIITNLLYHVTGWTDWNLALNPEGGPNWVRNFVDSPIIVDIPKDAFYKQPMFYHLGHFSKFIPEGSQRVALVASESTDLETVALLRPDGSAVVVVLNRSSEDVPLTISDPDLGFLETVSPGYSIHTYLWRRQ
Experimental: GBA1 activity assay—GBA1 activity was performed as previously described (Farfel-Becker et al. Hum Mol Genet. 2014; 23(4):843-54). Briefly, frozen half-brain samples were sonicated in Mcllvaine's buffer (0.1 M citric acid, pH 4.2, 0.2 M Na2HPO4, 29:21, vol:vol). Tissue homogenates containing 50 μg of protein were incubated at 37° C. with 8 μM C6-NBD-GlcCer (Avanti Polar Lipids, Alabaster, Ala., USA) in a final volume of 25 μl Mcllvaine's buffer for 30 minutes. Lipids were extracted and the lower phase separated by thin layer chromatography using chloroform:methanol:9.8 mM CaCl2 (60:35:8, vol:vol:vol) as the developing solvent. C6-NBD-ceramide was identified with an authentic standard using a Typhoon 9410 variable mode imager and bands were quantified by Image-QuantTL (GE Healthcare, Chalfont St Giles, UK).
To eliminate the possibility that the phenotypic differences observed in the different mouse strains were caused by differential CBE metabolism in the brain, GBA1 enzymatic activity in mice treated for 10 days with CBE or PBS (control) was measured. […] Overall, the remaining GBA1 activity was 5-10% of the controls (FIG. 3A). There was no correlation between GBA1 activity in the brain and life spans neither in the PBS(R^2=0.126, data not shown) nor CBE conditions (R^2=0.0581, FIG. 3B). In addition, no correlation was found between inhibition of GBA1 activity and life span when evaluated according to strains (R^2=0.0085, data not shown).

Compound: O[C@H]1[C@H](O)[C@@H](O)[C@@H]2O[C@@H]2[C@@H]1O [CBE, Conduritol-β-epoxide]
- sensitivity of neurons to glutamate toxicity (rat hippocampal neurons): more sensitive to the toxic effects of high concentrations of glutamate
- Average survival time (inbred mouse strains; 129S1/SvImJ mice): 108 days
- Average survival time (inbred mouse strains; A/J mice): 23 days
- Average survival time (inbred mouse strains; AKR/J mice): 24 days
- average mortality on day (inbred mouse strains; AKR/J mice, CBE-treated): 24 days
- Average survival time (inbred mouse strains; BALB/cJ mice): 130 days
- Average survival time (inbred mouse strains; BTBR T+ITPR3TF/J mice): 199 days
- 100% mortality on day (inbred mouse strains; BTBR T+ITPR3TF/J mice, CBE-treated): 199 days
- Average survival time (inbred mouse strains; C3H/HeJ mice): 24 days
- Average survival time (inbred mouse strains; C57BL6/JolaHsd mice): 29 days
- Average survival time (inbred mouse strains; DBA/2J mice): 26 days
- Average survival time (inbred mouse strains; FVB/NJ mice): 106 days
- Average survival time (inbred mouse strains; KK/HlJ mice): 143 days
- Average survival time (inbred mouse strains; MOLF/Ei mice): 41 days
- Average survival time (inbred mouse strains; MRL/MpJ mice): 30 days
- Average survival time (inbred mouse strains; NZW/LacJ mice): 84 days
- Average survival time (inbred mouse strains; PWD/Ph mice): 119 days
- Average survival time (inbred mouse strains; WSB/EiJ mice): 38 days
- remaining cerebral GBA1 activity (GBA1): 5-10 % of the controls
